Experimental data taken from patent US20210261642A1, “SOLUBILITY OF GLP-1 PEPTIDE” (Novo Nordisk A/S, priority 2017, published 2021).

Assay: Assay (I): Determination of Solubility (96-well plate, pH 3.0-11.0, organic solvent 0-70% w/w, UV absorption at 280 nm)
Format: physicochemical
Settings: Method 2 (precipitation), 5° C.
Experimental: Assay (I): Determination of Solubility
96-Well Plate Preparation
96-well plates containing target peptide in a solid form were prepared in one of two ways:
Method 1 (evaporation): Addition of 100 μl stock solution of said peptide at a concentration of 4-6 mg/ml to each well of a 96-well half area plate (150 μl well size). Subsequently the solvent was evaporated by applying a vacuum until the solvent was completely removed.
Method 2 (precipitation): Addition of a certain volume of a stock solution of said peptide containing to each well of a 96-well half area plate followed by the addition of a certain volume of concentrated phosphoric acid to obtain a pH of 4.6 followed by addition of a certain volume of ethanol resulting in a final ethanol concentration of 20% v/v. Subsequently the plate was stored at 4° C. for 1 h and then centrifuged at 4,000 rpm for 20 min. Finally the supernatant was removed. The concentration of the stock solution was chosen in a way that the final amount of peptide after supernatant removal was >0.4 mg per well.
In both cases the stock solution was prepared by adding de-ionized water to a certain amount of powder of said peptide followed by a stepwise addition of small amounts of a concentrated sodium hydroxide solution until said peptide was completely in solution.
To determine solubility of a target peptide at different pH and organic solvent concentrations, two different buffer systems were used in independent experiments to cover the whole range from pH 3.0 to pH 11.0. Buffer system 1 covers pH 3.0-7.5 and buffer system 2 covers pH 7.5-11.0. For each buffer system 96 different solvent compositions were premixed in the following way: • 1. A low pH buffer (adjusted to either pH 3.0 or pH 7.5) and a high pH buffer (adjusted to either pH 7.5 or pH 11.0) were mixed at 8 different ratios to obtain values between pH 3.0 and pH 7.5 or pH 7.5 and pH 11.0, respectively. The total volume after mixing was 300 μl. • 2. 12 different amounts of organic solvent were then added to these buffers to obtain organic solvent (e.g. ethanol) concentrations between 0 and 70% w/w. • 3. Water was then added to obtain a total weight of 1.0 g of solvent in each well.
After preparing the 96 different solvent systems, 100 μl of each system was transferred to the 96-well plate containing the solid form of the target peptide (prepared as described in the section “96-well plate preparation”). The plate was then stored at a given temperature (between 5° C. and 70° C.) for a given time on a rotating shaker set to 400 rpm. At regular time intervals the plate was centrifuged (4,000 rpm for 10 min) and a 10 μl sample was taken from each well. The samples were then analysed by UV absorption at 280 nm for peptide quantification. Peptide concentration results are given as UV absorption at 280 nm of the sample subtracted UV absorption at 280 nm of a well comprising 10 μl water.
The buffers used were as follows: • Buffer system 1 (for the pH range from pH 3.0-7.5)
• Buffer system 2 (for the pH ranae from pH 7.5-11.0)
Solubility of liraglutide was determined using Assay (I) described herein. Liraglutide was prepared using Method 1 (evaporation) or Method 2 (precipitation) as described in subsection “96-well plate preparation”.

With `CCCCCCCCCCCCCCCC(=O)N[C@@H](CCC(=O)NCCCC[C@H](NC(=O)[C@H](C)NC(=O)[C@H](C)NC(=O)[C@H](CCC(N)=O)NC(=O)CNC(=O)[C@H](CCC(=O)O)NC(=O)[C@H](CC(C)C)NC(=O)[C@H](Cc1ccc(O)cc1)NC(=O)[C@H](CO)NC(=O)[C@H](CO)NC(=O)[C@@H](NC(=O)[C@H](CC(=O)O)NC(=O)[C@H](CO)NC(=O)[C@@H](NC(=O)[C@H](Cc1ccccc1)NC(=O)[C@@H](NC(=O)CNC(=O)[C@H](CCC(=O)O)NC(=O)[C@H](C)NC(=O)[C@@H](N)Cc1cnc[nH]1)[C@@H](C)O)[C@@H](C)O)C(C)C)C(=O)N[C@@H](CCC(=O)O)C(=O)N[C@@H](Cc1ccccc1)C(=O)N[C@H](C(=O)N[C@@H](C)C(=O)N[C@@H](Cc1c[nH]c2ccccc12)C(=O)N[C@@H](CC(C)C)C(=O)N[C@H](C(=O)N[C@@H](CCCNC(=N)N)C(=O)NCC(=O)N[C@@H](CCCNC(=N)N)C(=O)NCC(=O)O)C(C)C)[C@@H](C)CC)C(=O)O` [liraglutide, Arg34,Lys26-(N-epsilon-(gamma-L-glutamyl(N-alfa-hexadecanoyl)))-GLP-1(7-37)] the GLP-1 peptide concentration (MeCN 57.3% w/w, pH 9.50, 5 min, before removal of outliers) was 0.5 mg/mL, the GLP-1 peptide concentration (MeCN 57.3% w/w, pH 9.50, 180 min, after removal of outliers) was greater than 4.0 mg/mL and the GLP-1 peptide concentration (MeCN 57.3% w/w, pH 9.50, 180 min, before removal of outliers) was greater than 4.0 mg/mL. For the same compound, the GLP-1 peptide concentration (MeCN 57.3% w/w, pH 9.50, 24 h, after removal of outliers) was 2.5 mg/mL, the GLP-1 peptide concentration (MeCN 57.3% w/w, pH 9.50, 24 h, before removal of outliers) was 2.5 mg/mL and the GLP-1 peptide concentration (MeCN 57.3% w/w, pH 10.00, 5 min, after removal of outliers) was 0.4 mg/mL. The GLP-1 peptide concentration (MeCN 57.3% w/w, pH 10.00, 5 min, before removal of outliers) was 0.4 mg/mL, the GLP-1 peptide concentration (MeCN 57.3% w/w, pH 10.00, 180 min, after removal of outliers) was greater than 4.0 mg/mL and the GLP-1 peptide concentration (MeCN 57.3% w/w, pH 10.00, 180 min, before removal of outliers) was greater than 4.0 mg/mL. It also gave a GLP-1 peptide concentration (MeCN 57.3% w/w, pH 10.00, 24 h, after removal of outliers) of 1.1 mg/mL, a GLP-1 peptide concentration (MeCN 57.3% w/w, pH 10.00, 24 h, before removal of outliers) of 1.1 mg/mL and a GLP-1 peptide concentration (MeCN 57.3% w/w, pH 10.50, 5 min, after removal of outliers) of 0.5 mg/mL. It also gave a GLP-1 peptide concentration (MeCN 57.3% w/w, pH 10.50, 5 min, before removal of outliers) of 0.5 mg/mL, a GLP-1 peptide concentration (MeCN 57.3% w/w, pH 10.50, 180 min, after removal of outliers) greater than 4.0 mg/mL and a GLP-1 peptide concentration (MeCN 57.3% w/w, pH 10.50, 180 min, before removal of outliers) greater than 4.0 mg/mL. The GLP-1 peptide concentration (MeCN 57.3% w/w, pH 10.50, 24 h, after removal of outliers) was 1.7 mg/mL, the GLP-1 peptide concentration (MeCN 57.3% w/w, pH 10.50, 24 h, before removal of outliers) was 1.7 mg/mL and the GLP-1 peptide concentration (MeCN 57.3% w/w, pH 11.00, 5 min, after removal of outliers) was 0.5 mg/mL. The GLP-1 peptide concentration (MeCN 57.3% w/w, pH 11.00, 5 min, before removal of outliers) was 0.5 mg/mL, the GLP-1 peptide concentration (MeCN 57.3% w/w, pH 11.00, 180 min, after removal of outliers) was greater than 4.0 mg/mL and the GLP-1 peptide concentration (MeCN 57.3% w/w, pH 11.00, 180 min, before removal of outliers) was greater than 4.0 mg/mL. The GLP-1 peptide concentration (MeCN 57.3% w/w, pH 11.00, 24 h, after removal of outliers) was 3.6 mg/mL, the GLP-1 peptide concentration (MeCN 57.3% w/w, pH 11.00, 24 h, before removal of outliers) was 3.6 mg/mL and the GLP-1 peptide concentration (MeCN 63.6% w/w, pH 7.50, 5 min, before removal of outliers) was 0.4 mg/mL. For the same compound, the GLP-1 peptide concentration (MeCN 63.6% w/w, pH 7.50, 180 min, before removal of outliers) was 1.0 mg/mL, the GLP-1 peptide concentration (MeCN 63.6% w/w, pH 7.50, 24 h, before removal of outliers) was 2.4 mg/mL and the GLP-1 peptide concentration (MeCN 63.6% w/w, pH 8.00, 5 min, after removal of outliers) was 0.5 mg/mL. For the same compound, the GLP-1 peptide concentration (MeCN 63.6% w/w, pH 8.00, 5 min, before removal of outliers) was 0.5 mg/mL, the GLP-1 peptide concentration (MeCN 63.6% w/w, pH 8.00, 180 min, after removal of outliers) was 1.2 mg/mL and the GLP-1 peptide concentration (MeCN 63.6% w/w, pH 8.00, 180 min, before removal of outliers) was 1.2 mg/mL. The GLP-1 peptide concentration (MeCN 63.6% w/w, pH 8.00, 24 h, after removal of outliers) was 3.2 mg/mL, the GLP-1 peptide concentration (MeCN 63.6% w/w, pH 8.00, 24 h, before removal of outliers) was 3.2 mg/mL and the GLP-1 peptide concentration (MeCN 63.6% w/w, pH 8.50, 5 min, after removal of outliers) was 0.5 mg/mL. The GLP-1 peptide concentration (MeCN 63.6% w/w, pH 8.50, 5 min, before removal of outliers) was 0.5 mg/mL, the GLP-1 peptide concentration (MeCN 63.6% w/w, pH 8.50, 180 min, after removal of outliers) was 3.1 mg/mL and the GLP-1 peptide concentration (MeCN 63.6% w/w, pH 8.50, 180 min, before removal of outliers) was 3.1 mg/mL. The GLP-1 peptide concentration (MeCN 63.6% w/w, pH 8.50, 24 h, after removal of outliers) was 3.1 mg/mL, the GLP-1 peptide concentration (MeCN 63.6% w/w, pH 8.50, 24 h, before removal of outliers) was 3.1 mg/mL and the GLP-1 peptide concentration (MeCN 63.6% w/w, pH 9.00, 5 min, after removal of outliers) was 0.5 mg/mL. For the same compound, the GLP-1 peptide concentration (MeCN 63.6% w/w, pH 9.00, 5 min, before removal of outliers) was 0.5 mg/mL, the GLP-1 peptide concentration (MeCN 63.6% w/w, pH 9.00, 180 min, after removal of outliers) was 1.7 mg/mL and the GLP-1 peptide concentration (MeCN 63.6% w/w, pH 9.00, 180 min, before removal of outliers) was 1.7 mg/mL. The GLP-1 peptide concentration (MeCN 63.6% w/w, pH 9.00, 24 h, after removal of outliers) was greater than 4.0 mg/mL, the GLP-1 peptide concentration (MeCN 63.6% w/w, pH 9.00, 24 h, before removal of outliers) was greater than 4.0 mg/mL and the GLP-1 peptide concentration (MeCN 63.6% w/w, pH 9.50, 5 min, after removal of outliers) was 0.6 mg/mL. The GLP-1 peptide concentration (MeCN 63.6% w/w, pH 9.50, 5 min, before removal of outliers) was 0.6 mg/mL, the GLP-1 peptide concentration (MeCN 63.6% w/w, pH 9.50, 180 min, after removal of outliers) was 2.9 mg/mL and the GLP-1 peptide concentration (MeCN 63.6% w/w, pH 9.50, 180 min, before removal of outliers) was 2.9 mg/mL. It also gave a GLP-1 peptide concentration (MeCN 63.6% w/w, pH 9.50, 24 h, after removal of outliers) of 1.2 mg/mL, a GLP-1 peptide concentration (MeCN 63.6% w/w, pH 9.50, 24 h, before removal of outliers) of 1.2 mg/mL and a GLP-1 peptide concentration (MeCN 63.6% w/w, pH 10.00, 5 min, after removal of outliers) of 0.4 mg/mL.
